Source: patent EP1021088B1, “FUNGICIDE MIXTURES BASED ON FLUQUINCONAZOLE” (Aventis CropScience UK Limited, priority 1997, dated 1999)

Assays:
[1] = test system: Erysiphe graminis (powdery mildew); assay: Control of powdery mildew on wheat plants, spraying two days after inoculation; type: in vivo; settings: sprayed two days after inoculation, assessed one week after inoculation
Protocol: (§1) Wheat plants were inoculated with Erysiphe graminis (powdery mildew). Two days after inoculation, they were sprayed with fluquinconazole, obtained by diluting with water to the desired concentration, a suspension concentrate comprising 10% by weight active ingredient, or azoxystrobin obtained by diluting with water to the desired concentration, the commercial product sold under the trade name "Amistar", or mixtures of these. One week after inoculation, the wheat was assessed for control of disease. To indicate the existence of synergism between the active components the results were treated in the manner described by Colby S.R., "Calculating Synergistic and Antagonistic Responses of Herbicide Combinations" in Weeds 1967 15, 20-22). In this method the "expected" percent control of growth, E, of the combination compared with untreated control is given by the equation E = A + F -(AF)/(100) [formula] where A is the % control by azoxystrobin used alone at a given concentration and F is the % control by fluquinconazole, used alone at a given concentration. […] In the table, component "az" is azoxystrobin and "fq" is fluquinconazole.

[2] = test system: Erysiphe graminis (powdery mildew); assay: Control of powdery mildew on wheat plants, spraying one day after inoculation; type: in vivo; settings: sprayed one day after inoculation
Protocol: as §1, with “fluquinconazole. Table 1 In a similar manner, Example 1 was repeated with spraying one day after inoculation. The results are as follows Table 2” for “fluquinconazole.”

| SMILES | % Control Observed ([1]; az 31.25 g cpd/ha) [%] | % Control Observed ([1]; az 62.5 g cpd/ha) [%] | % Control Observed ([1]; az 125 g cpd/ha) [%] | % Control Observed ([1]; az 187.5 g cpd/ha) [%] | % Control Observed ([2]; az 31.25 g cpd/ha) [%] | % Control Observed ([2]; az 62.5 g cpd/ha) [%] | % Control Observed ([1]; fq 15.25 g cpd/ha) [%] | % Control Observed ([1]; fq 31.25 g cpd/ha) [%] | % Control Observed ([2]; fq 15.25 g cpd/ha) [%] | % Control Observed ([2]; fq 31.25 g cpd/ha) [%] |
| --- | --- | --- | --- | --- | --- | --- | --- | --- | --- | --- |
| CO/C=C(/C(=O)OC)c1ccccc1Oc1cc(Oc2ccccc2C#N)ncn1 [az, methyl (E)-2-{2-[6-(2-cyanophenoxy)pyrimidin-4-yloxy]phenyl}-3-methoxyacrylate] | 10 | 12 | 42 | 62 | 0 | 0 | – | – | – | – |
| O=c1c2cc(F)ccc2nc(-n2cncn2)n1-c1ccc(Cl)cc1Cl [fq, 3-(2,4-dichlorophenyl)-6-fluoro-2-((1H)-1,2,4-triazol-1-yl)-4(3H)-quinazolinone] | – | – | – | – | – | – | 24 | 70 | 12 | 68 |
